Test results from patent publication US20260265189A1, “NOVEL COMPOUND, AND PHARMACEUTICAL COMPOSITION COMPRISING SAME AS ACTIVE INGREDIENT” (SAPIENSBIO INC., priority 2022, published 2026).

tested on: α-SMA expression in MRC5 cells; test: inhibition of α-SMA expression in MRC5 cells, image screening method; format: cell-based; conditions: Homo sapiens; MRC5, compound 10 μM, TGF-β1 5 ng/mL, 72 hours, relative to TGF-β1 alone; read-out: Inhibitory activity (α-SMA expression inhibition)
Protocol: The ability of the compounds according to the present invention to inhibit the expression of α-SMA, which is a biomarker for pulmonary fibrosis, was evaluated by an image screening method. MRC5 cells were treated with the compound (10 μM) or DMSO under the condition of TGF-31 (5 ng/mL). 72 hours later, the cells were fixed with a 4% formaldehyde solution, treated with a 0.1% Triton-x100 solution, and treated with a 1% BSA solution to mask non-specific binding caused by antibodies. Anti-α-SMA-FITC (Sigma Aldrich) and anti-GAPDH (Cell Signaling Technology) were used as primary antibodies, and anti-mouse-TRITC was used as a secondary antibody. Imaging and analysis of the results were performed using Cytation5_Gen5_Version 3.12.08 (Bio Tek). Relative to the α-SMA expression level when TGF-31 was treated alone, the α-SMA expression level when both the compound and TGF-31 were treated was calculated as the ability of α-SMA expression inhibition of the corresponding compound.

`O=C(N[C@H]1CCNC1)N1CCN(c2cnccn2)c2ccccc21` [Compound 80, (S)-4-(pyrazin-2-yl)-N-(pyrrolidin-3-yl)-3,4-dihydroquinoxaline-1(2H)-carboxamide] and `CC(C)N1CC[C@H](NC(=O)N2CCN(c3cnccn3)c3ccccc32)C1` [Compound 81, (S)-N-(1-isopropylpyrrolidin-3-yl)-4-(pyrazin-2-yl)-3,4-dihydroquinoxaline-1(2H)-carboxamide] fall in the same range of inhibition at 10 µM: 10 to 30% for the first, 10 to 30% for the second.

`CC(C)CN1CCC(NC(=O)N2CCN(c3cnccn3)c3ccccc32)CC1` [Compound 82, N-(1-isobutylpiperidin-4-yl)-4-(pyrazin-2-yl)-3,4-dihydroquinoxaline-1(2H)-carboxamide] and `CC(C)N1CCC(NC(=O)N2CCN(c3cnccn3)c3ccccc32)CC1` [Compound 83, N-(1-isopropylpiperidin-4-yl)-4-(pyrazin-2-yl)-3,4-dihydroquinoxaline-1(2H)-carboxamide] fall in the same range of inhibition at 10 µM: 10 to 30% for the first, 10 to 30% for the second.

First: O=C(N[C@@H]1CCNC1)N1CCN(Cc2ccccc2)c2ccccc21 [Compound 84, (R)-4-benzyl-N-(pyrrolidin-3-yl)-3,4-dihydroquinoxaline-1(2H)-carboxamide]
Second: O=C(N[C@@H]1CCNC1)N1CCN(Cc2ccc(F)cc2)c2ccccc21 [Compound 91, (R)-4-(4-fluorobenzyl)-N-(pyrrolidin-3-yl)-3,4-dihydroquinoxaline-1(2H)-carboxamide]
The inhibition at 10 µM of the first is lower: 30 to 50% for the first, 50 to 70% for the second.

First: N[C@H]1CCN(C(=O)N2CCN(Cc3ccccc3)c3ccccc32)C1 [Compound 85, (S)-(3-aminopyrrolidin-1-yl)(4-benzyl-3,4-dihydroquinoxalin-1(2H)-yl)methanone]
Second: CN[C@H]1CCN(C(=O)N2CCN(Cc3ccccc3)c3ccccc32)C1 [Compound 86, (S)-(4-benzyl-3,4-dihydroquinoxalin-1(2H)-yl)(3-(methylamino)pyrrolidin-1-yl)methanone]
The inhibition at 10 µM of the first is higher: 30 to 50% for the first, 10 to 30% for the second.

`CN1CC[C@@H](NC(=O)N2CCN(Cc3ccccc3F)c3ccccc32)C1` [Compound 87, (R)-4-(2-fluorobenzyl)-N-(1-methylpyrrolidin-3-yl)-3,4-dihydroquinoxaline-1(2H)-carboxamide] and `CN1CCC(NC(=O)N2CCN(Cc3ccccc3F)c3ccccc32)CC1` [Compound 88, 4-(2-fluorobenzyl)-N-(1-methylpiperidin-4-yl)-3,4-dihydroquinoxaline-1(2H)-carboxamide] fall in the same range of inhibition at 10 µM: 50 to 70% for the first, 50 to 70% for the second.

First: CN1CCC(CNC(=O)N2CCN(Cc3ccccc3F)c3ccccc32)CC1 [Compound 89, 4-(2-fluorobenzyl)-N-((1-methylpiperidin-4-yl)methyl)-3,4-dihydroquinoxaline-1(2H)-carboxamide]
Second: CN1CC[C@H](CNC(=O)N2CCN(Cc3ccccc3F)c3ccccc32)C1 [Compound 90, (R)-4-(2-fluorobenzyl)-N-((1-methylpyrrolidin-3-yl)methyl)-3,4-dihydroquinoxaline-1(2H)-carboxamide]
The inhibition at 10 µM of the first is higher: 50 to 70% for the first, 30 to 50% for the second.

`O=C(NC1CCNCC1)N1CCN(Cc2ccc(F)cc2)c2ccccc21` [Compound 93, 4-(4-fluorobenzyl)-N-(piperidin-4-yl)-3,4-dihydroquinoxaline-1(2H)-carboxamide] and `O=C(N[C@@H]1CCNC1)N1CCN(Cc2ccc(Cl)cc2)c2ccccc21` [Compound 95, (R)-4-(4-chlorobenzyl)-N-(pyrrolidin-3-yl)-3,4-dihydroquinoxaline-1(2H)-carboxamide] cannot be ordered by inhibition at 10 µM: 50 to 70% for the first, at least 70% for the second.

First: CC(C)CN[C@H]1CCN(C(=O)N2CCN(Cc3ccccn3)c3ccccc32)C1 [Compound 96, (S)-(3-(isobutylamino)pyrrolidin-1-yl)(4-(pyridin-2-ylmethyl)-3,4-dihydroquinoxalin-1(2H)-yl)methanone]
Second: CN(C)[C@H]1CCN(C(=O)N2CCN(Cc3ccccn3)c3ccccc32)C1 [Compound 97, (S)-(3-(dimethylamino)pyrrolidin-1-yl)(4-(pyridin-2-ylmethyl)-3,4-dihydroquinoxalin-1(2H)-yl)methanone]
The inhibition at 10 µM of the first is higher: 30 to 50% for the first, 10 to 30% for the second.

`O=C(N[C@@H]1CCOC1)N1CCN(Cc2ccccn2)c2ccccc21` [Compound 98, (R)-4-(pyridin-2-ylmethyl)-N-(tetrahydrofuran-3-yl)-3,4-dihydroquinoxaline-1(2H)-carboxamide] and `O=C(NC1COC1)N1CCN(Cc2ccccn2)c2ccccc21` [Compound 99, N-(oxetan-3-yl)-4-(pyridin-2-ylmethyl)-3,4-dihydroquinoxaline-1(2H)-carboxamide] fall in the same range of inhibition at 10 µM: 30 to 50% for the first, 30 to 50% for the second.

`O=C(NCC1CCOC1)N1CCN(Cc2ccccn2)c2ccccc21` (stereo not shown) [Compound 100, 4-(pyridin-2-ylmethyl)-N-((tetrahydrofuran-3-yl)methyl)-3,4-dihydroquinoxaline-1(2H)-carboxamide] and `O=C(NCC1CCOCC1)N1CCN(Cc2ccccn2)c2ccccc21` [Compound 101, 4-(pyridin-2-ylmethyl)-N-((tetrahydro-2H-pyran-4-yl)methyl)-3,4-dihydroquinoxaline-1(2H)-carboxamide] fall in the same range of inhibition at 10 µM: 30 to 50% for the first, 30 to 50% for the second.

Compared with `O=C(NCC1CC1)N1CCN(Cc2ccccn2)c2ccccc21` [Compound 102, N-(cyclopropylmethyl)-4-(pyridin-2-ylmethyl)-3,4-dihydroquinoxaline-1(2H)-carboxamide], `O=C(NCC1CCNCC1)N1CCN(C(=O)c2ccccc2)c2ccccc21` [Compound 114, 4-benzoyl-N-(piperidin-4-ylmethyl)-3,4-dihydroquinoxaline-1(2H)-carboxamide] is lower in inhibition at 10 µM: 30 to 50% for the first, 10 to 30% for the second.

Compared with `O=C(N[C@@H]1CCNC1)N1CCN(C2CCCCC2)c2ccccc21` [Compound 104, (R)-4-cyclohexyl-N-(pyrrolidin-3-yl)-3,4-dihydroquinoxaline-1(2H)-carboxamide], `CC(C)CN1CC[C@@H](NC(=O)N2CCN(C3CCCCC3)c3ccccc32)C1` [Compound 106, (R)-4-cyclohexyl-N-(1-isobutylpyrrolidin-3-yl)-3,4-dihydroquinoxaline-1(2H)-carboxamide] is higher in inhibition at 10 µM: 10 to 30% for the first, 30 to 50% for the second.

Compared with `CN1CCN(C(=O)N2CCN(C3CCCCC3)c3ccccc32)CC1` [Compound 107, (4-cyclohexyl-3,4-dihydroquinoxalin-1(2H)-yl)(4-methylpiperazin-1-yl)methanone], `O=C(N1CCCC1)N1CCN(C2CCCCC2)c2ccccc21` [Compound 108, (4-cyclohexyl-3,4-dihydroquinoxalin-1(2H)-yl)(pyrrolidin-1-yl)methanone] is higher in inhibition at 10 µM: 10 to 30% for the first, 30 to 50% for the second.

First: O=C(N1CCCCC1)N1CCN(C2CCCCC2)c2ccccc21 [Compound 109, (4-cyclohexyl-3,4-dihydroquinoxalin-1(2H)-yl)(piperidin-1-yl)methanone]
Second: CC(C)CC(=O)N1CCN(C(=O)NCC2CCNCC2)c2ccccc21 [Compound 125, 4-(3-methylbutanoyl)-N-(piperidin-4-ylmethyl)-3,4-dihydroquinoxaline-1(2H)-carboxamide]
The inhibition at 10 µM of the first is higher: 30 to 50% for the first, 10 to 30% for the second.

`CC(C)(C)CC(=O)N1CCN(C(=O)NC[C@@H]2CCNC2)c2ccccc21` [Compound 129, (R)-4-(3,3-dimethylbutanoyl)-N-(pyrrolidin-3-ylmethyl)-3,4-dihydroquinoxaline-1(2H)-carboxamide] and `CC(C)(C)CC(=O)N1CCN(C(=O)NCC2CCNCC2)c2ccccc21` [Compound 130, 4-(3,3-dimethylbutanoyl)-N-(piperidin-4-ylmethyl)-3,4-dihydroquinoxaline-1(2H)-carboxamide] fall in the same range of inhibition at 10 µM: 10 to 30% for the first, 10 to 30% for the second.

tested on: not given; test: not given; conditions: clinical use as therapeutic drug for pulmonary fibrosis; cited from earlier work

In the case of `Cc1ccc(=O)n(-c2ccccc2)c1` [Pirfenidone], the lung function improvement is listed as “about 10%”.
